# Assay results as given in patent US4743594A, “Antibiotic, antitumor compounds and their use” (priority 1984, dated 1988).
# Experiments:
# [1] = tested on: Sarcina lutea (ATCC 9341); assay: in-vitro antibacterial activity, agar dilution (MIC); type: cell-based; settings: Micrococcus luteus, ATCC9341, MHA, 48 hrs, pH 7.4, read-out: Minimum Inhibitory Concentration (MIC)
# Protocol: (§1) Antibiotics AT 2433 A1, AT 2433 A2, and AT 2433 B1 and AT 2433 B2 were tested in-vitro to determine anti-bacterial activity against a variety of gram-positive and gram-negative organisms
# (§2) The in-vitro antibacterial activity tests were performed via conventional agar dilution methods in Muell-Hintom agar (MHA) at pH 7.4.
# gram-positive bacteria = assay: antibacterial activity against gram-positive bacteria; type: cell-based
# Protocol: as §1, §2
# [2] = in-vivo antitumor activity against transplanted mouse P-388 leukemia (NCI test); settings: mouse, in vivo; every 3rd day for 3 injections, ip; read-out: maximum tolerated dose (no day 5 or earlier deaths due to toxicity)
# Protocol: (§3) Anti-tumor activity was determined by the standard National Cancer Institute test which was published in Cancer Chemothr. Rep. 3:1-103, 1972.
# (§4) In the test, 10^6 cells (a lethal dose) per mouse of P-388 leukemia are administered interperitoneally on day 0. The test compounds are serially diluted (1:2, 1:4, 1:8, etc.) and each dilution is administered interperitoneally to the mice on days 1, 4 and 7.
# (§5) ^1 Tumor inoculum: 10^6 ascites cells, ip
# (§6) ^2 Host: CDF1 male mice
# (§7) ^3 Treatment schedule: For AT 2433 A1 and B1, ip. days 1, 4
# (§8) ^4 Tox: Toxic, i.e., <4/6 mice alive on day 5
# (§9) ^5 MST: Median survived time in days
# (§10) ^6 % T/C: (MSTTreated/MST-Control) × 100
# (§11) ^7 Criteria: If % T/C >125, the test compound is considered to exhibi
# (§12) significant antitumor activity at that dose.
# P-388 leukemia = assay: as above; settings: for MST (% T/C): >125 = significant antitumor activity; for in-vivo antitumor activity: P-388 leukemia in mice
# Protocol: as §3, §4, §5, §6, §7, §8, §9, §10, §11, §12
# E. Coli SS 1431 = assay: in-vitro antibacterial activity, agar dilution (MIC); type: cell-based; settings: Escherichia coli, MHA, 48 hrs, pH 7.4
# Protocol: as §1, §2
# gram-negative bacteria = assay: antibacterial activity against gram-negative bacteria; type: cell-based
# Protocol: as §1, §2
# [3] = 0.5 mg/kg/inj, ip, days 1, 4 and 7
# [4] = 0.5 mg/kg/inj, ip, days 1, 4 and 7, CDF1 male mice
# [5] = 1 mg/kg/inj, ip, days 1, 4 and 7
# [6] = 1 mg/kg/inj, ip, days 1, 4 and 7, CDF1 male mice
# [7] = 2 mg/kg/inj, ip, days 1, 4 and 7
# [8] = 2 mg/kg/inj, ip, days 1, 4 and 7, CDF1 male mice
# [9] = 4 mg/kg/inj, ip, days 1, 4 and 7
# [10] = 4 mg/kg/inj, ip, days 1, 4 and 7, CDF1 male mice
# [11] = 8 mg/kg/inj, ip, days 1, 4 and 7
# [12] = 8 mg/kg/inj, ip, days 1, 4 and 7, CDF1 male mice
# [13] = 16 mg/kg/inj, ip, days 1, 4 and 7, CDF1 male mice
# [14] = 16 mg/kg/inj, ip, days 1, 4 and 7
SMILES,MIC [1],antibacterial activity against gram-positive bacteria (gram-positive bacteria),MST (% T/C) (P-388 leukemia; [3]),MST (median survived time) (P-388 leukemia; [4]),"Avg. wt. change, gm on day 5 (P-388 leukemia; [3])",Survivors day 5 (P-388 leukemia; [3]),MST (% T/C) (P-388 leukemia; [5]),MST (median survived time) (P-388 leukemia; [6]),"Avg. wt. change, gm on day 5 (P-388 leukemia; [5])",Survivors day 5 (P-388 leukemia; [5]),MST (% T/C) (P-388 leukemia; [7]),MST (median survived time) (P-388 leukemia; [8]),"Avg. wt. change, gm on day 5 (P-388 leukemia; [7])",Survivors day 5 (P-388 leukemia; [7]),MST (% T/C) (P-388 leukemia; [9]),MST (median survived time) (P-388 leukemia; [10]),"Avg. wt. change, gm on day 5 (P-388 leukemia; [9])",Survivors day 5 (P-388 leukemia; [9]),MST (% T/C) (P-388 leukemia; [11]),MST (median survived time) (P-388 leukemia; [12]),also measured
COC1C(COC2CC(O)C(N)CO2)OC(n2c3ccccc3c3c4c(c5c6ccccc6[nH]c5c32)C(=O)N(C)C4=O)C(O)C1O (stereo not drawn) [AT 2433 B2],4 µg/mL,active,,,,,,,,,,,,,,,,,,,
CNC1COC(OCC2OC(n3c4c(Cl)cccc4c4c5c(c6c7ccccc7[nH]c6c43)C(=O)N(C)C5=O)C(O)C(O)C2OC)CC1O (stereo not drawn) [AT 2433 A1],0.25 µg/mL,active,150%,13.5 days,-0.2 gm,6/6,150%,13.5 days,-0.7 gm,6/6,172%,15.5 days,-2.2 gm,6/6,156%,14.0 days,-2.3 gm,5/6,194%,17.5 days,"MTD [2]: 2 mg/kg; increase in life span over controls (P-388 leukemia; 2 mg/kg given every 3rd day for 3 injections): 72%; Avg. wt. change, gm on day 5 (P-388 leukemia; [11]): -4.1 gm; Survivors day 5 (P-388 leukemia; [11]): 4/6; MST (% T/C) (toxicity flag) (P-388 leukemia; [13]): Tox (Toxic, i.e., <4/6 mice alive on day 5); MST (toxicity flag) (P-388 leukemia; [13]): Tox (Toxic, i.e., <4/6 mice alive on day 5); Avg. wt. change, gm on day 5 (P-388 leukemia; [14]): -3.2 gm; Survivors day 5 (P-388 leukemia; [14]): 2/6; in-vivo antitumor activity (P-388 leukemia): exhibited in-vivo antitumor activity"
CNC1COC(OCC2OC(n3c4ccccc4c4c5c(c6c7ccccc7[nH]c6c43)C(=O)N(C)C5=O)C(O)C(O)C2OC)CC1O (stereo not drawn) [AT 2433 B1],0.25 µg/mL,active,111%,10.0 days,3.0 gm,5/5,117%,10.5 days,3.0 gm,5/5,122%,11.0 days,0.0 gm,6/6,133%,12.0 days,-0.6 gm,6/6,133%,12.0 days,"MIC (E. Coli SS 1431): 16 µg/mL; antibacterial activity against gram-negative bacteria (gram-negative bacteria): exhibit antibacterial activity; Avg. wt. change, gm on day 5 (P-388 leukemia; [11]): -0.3 gm; Survivors day 5 (P-388 leukemia; [11]): 6/6; MST (% T/C) (P-388 leukemia; [14]): 144%; MST (median survived time) (P-388 leukemia; [13]): 13.0 days; Avg. wt. change, gm on day 5 (P-388 leukemia; [14]): -0.7 gm; Survivors day 5 (P-388 leukemia; [14]): 6/6; in-vivo antitumor activity (P-388 leukemia): exhibited in-vivo antitumor activity; tumor growth inhibition (P-388 leukemia; highest dose tested, 16 mg/kg): inhibitory to tumor growth but less effective than AT 2433 A1"
COC1C(COC2CC(O)C(N)CO2)OC(n2c3c(Cl)cccc3c3c4c(c5c6ccccc6[nH]c5c32)C(=O)N(C)C4=O)C(O)C1O (stereo not drawn) [AT 2433 A2],1 µg/mL,active,,,,,,,,,,,,,,,,,,,
